Results on 2 molecules are retold here after patent US9814720B2, “Compositions and methods of inhibiting IL-17 expression of neutrophils” (priority 2014, dated 2017).

Test [1] relates to IL-17A. Description: IL-17A expression in IL-6/23-stimulated murine bone marrow neutrophils (qPCR, ELISA, intracellular flow cytometry). Format: cell-based, C57BL/6 mice. The settings on record: discussion restatement, species not stated. The source says: Total bone marrow-derived cells were isolated from mouse femurs and tibias by flushing with RPMI and an 18-gauge needle. Erythrocytes were lysed with 1× lysis buffer (eBioscience), and bone marrow cells were separated on a Percoll (Fisher) gradient by density centrifugation (52%, 69%, and 78%). Cells at the 69-78% interface were harvested, and neutrophil purity (>98%) confirmed by flow cytometry and Wright-Giemsa staining. IL-17A protein production was quantified by 2-site ELISA, according to the manufacturer's directions (R&D Biosciences). Murine or human neutrophils were suspended at a density of 10^6 cells/ml and incubated with […] of recombinant mouse or human IL-6 and 2 μg/ml IL-23 in RPMI, and the cells were maintained for 1-3 h at 37° C. in 5% CO2. Various inhibitors were used for assessing STAT3 activation. […] For the determination of RORγt-dependent signaling, SR1001 (20 μM; Sigma) was used, which inhibits RORγt binding to the IL-17 promoter site. All inhibitors were added to neutrophils 2 h prior to recombinant IL-6 and IL-23 stimulation. […] Ten corneas were pooled and analyzed by intracellular flow cytometry. […] Cells were analyzed using a C6 Accuri flow cytometer (BD). […] The SYBR green system (Applied Biosystems, Carlsbad, Calif.) was utilized for quantitative PCR (qPCR) using ABI Biosystems. […]

Test [2] has as its system IL-17RC. Description: IL-17RC gene expression by qPCR in IL-6/23-stimulated murine neutrophils. In kind it is cell-based. The settings on record: IL-6/23 1 h, FIG. 6A. The source says: Total bone marrow-derived cells were isolated from mouse femurs and tibias by flushing with RPMI and an 18-gauge needle. Erythrocytes were lysed with 1× lysis buffer (eBioscience), and bone marrow cells were separated on a Percoll (Fisher) gradient by density centrifugation (52%, 69%, and 78%). Cells at the 69-78% interface were harvested, and neutrophil purity (>98%) confirmed by flow cytometry and Wright-Giemsa staining.
(§1) Murine or human neutrophils were suspended at a density of 10^6 cells/ml and incubated with […] of recombinant mouse or human IL-6 and 2 μg/ml IL-23 in RPMI, and the cells were maintained for 1-3 h at 37° C. in 5% CO2. Various inhibitors were used for assessing STAT3 activation. For STAT3, neutrophils were treated with either the STAT3-SH2 inhibitor, Stattic (20 μM) obtained from Tocris, or the JAK-1, 2 inhibitor, INC424, (aka Ruxolitinib; 20 μM (Selleck BioChem)). For the determination of RORγt-dependent signaling, SR1001 (20 μM; Sigma) was used, which inhibits RORγt binding to the IL-17 promoter site. All inhibitors were added to neutrophils 2 h prior to recombinant IL-6 and IL-23 stimulation.
(§2) Neutrophil and corneal cell RNA was extracted using the RNeasy mini kit according to the manufacturer's directions (Qiagen, Valencia, Calif.). The quality of RNA was checked by spectrophotometry, and only samples with a 260/280 ratio of 2.0 were used to generate cDNA. The SuperScript First Strand synthesis system (Invitrogen) was used to generate cDNA according to the manufacturer's directions.
(§3) The SYBR green system (Applied Biosystems, Carlsbad, Calif.) was utilized for quantitative PCR (qPCR) using ABI Biosystems. PCR products were then run on a 1% agarose gel, and visualized using ethidium bromide. PCR products were compared to Actb (encoding the β-actin gene) or GAPDH as the controls for gel loading.
For orientation: In qPCR the cycle at which signal appears reflects the starting amount.

For test [3], the system named is IL-17RC. Description: IL-17RC gene expression by qPCR in IL-6/23-stimulated human neutrophils. In kind it is cell-based. The settings on record: IL-6/23 1 h, FIG. 6B. The procedure: Neutrophils were isolated from peripheral blood of healthy donors. Peripheral blood was incubated in 3% Dextran, and neutrophils isolated by Ficoll gradient centrifugation (Fisher Scientific), with neutrophil purity determined by staining with Wright-Giemsa.
as §1, §2, §3

The test system of test [4] is bone marrow-derived murine neutrophils. Description: ROS production (CFDA) by murine bone marrow neutrophils incubated with Aspergillus hyphae. The settings on record: IL-6/23-stimulated, inhibitor 20 μM, FIG. 6C. Format: cell-based, C57BL/6 mice. The procedure:
(§4) Murine and human neutrophils were incubated with p-STAT3 (20 μM Stattic or 20 μM INC424) or RORγt inhibitors (20 μM SR1001) for 2 h. Then the cells were stimulated with […] of rIL-6 and 2 μg/ml of rIL-23 for 3 h, washed, and 2×10^5 bone marrow-derived murine neutrophils or 10^5 human peripheral blood neutrophils, with or without recombinant IL-17A, were added to each well with growing hyphae. RPMI media was used as positive control (unimpaired growth), and PBS was used as a negative control (no growth (data not shown)). After 16 h the wells were washed with PBS and the dsRed fungal mass was quantified in a 96-well fluorometer at 550/600 nm excitation/emission filter (Synergy HT, Biotek).
(§5) In vitro ROS production measured by CFDA was previously described. Briefly, 100 μg/100 μl of A. fumigatus hyphal extract (AspHE) were incubated with 2×10^5 murine or human neutrophils. Neutrophils were treated for 1 h with 1 μM Carboxyfluorescein diacetate (H2CFDA (Sigma)), which will fluoresce following ROS oxidation. Neutrophils were collected and analyzed by flow cytometry. H2CFDA pulsed neutrophils that had not been incubated with AspHE were used to set the ROS histogram gate. The average mean intensity was calculated by Accuri flow software and graphed in Prism.

In test [5] the test system is human peripheral blood neutrophils. Description: ROS production (CFDA) by human peripheral blood neutrophils incubated with Aspergillus hyphae. Format: cell-based. The settings on record: IL-6/23-stimulated, inhibitor 20 μM, FIG. 6E. The procedure: as §4, §5
For test [6], the system named is A. fumigatus hyphae. Description: In vitro fungal killing assay (hyphal coincubation) with murine neutrophils. In kind it is cell-based, Aspergillus fumigatus. The conditions noted are these: IL-6/23-stimulated, inhibitor 20 μM, FIG. 6D.
From the text: (§6) Aspergillus strains—For cornea infections and in vitro fungal killing assays, an RFP expressing strain of A. fumigatus (Af-dsRed) was used. This strain is gpdA promoter driven to constitutively express monomeric dsRed. For subcutaneous “priming” injections, heat-killed, swollen conidia Aspergillus fumigatus strain Af-BP was used. For the Aspergillus hyphal extract used in ROS assay, A. fumigatus strain Af-BP hyphae were pulverized in liquid nitrogen, filtered through a 30 μm pre-separation filter (Miltenyi Biotec) and protein measured by the BCA method (Pierce). Aspergillus hyphal extracts (AspHE) were stored at −20° C. and used at a final concentration of 1 mg/ml.
(§7) A hyphal coincubation assay was used to study the ability of murine and human neutrophils to inhibit A. fumigatus hyphal growth as described. Briefly, 12,500 A. fumigatus dsRed expressing conidia (strain Af-dsRed) per 200 μl Sabouraud dextrose media were added to wells of black-walled 96 well plates with an optically clear bottom (CoStar 3720). After 6 h, the conidia had germinated and the hyphae became adherent to the wells, at which time the medium was removed.
as §4

Test [7] concerns A. fumigatus hyphae. The test can be described thus: In vitro fungal killing assay (hyphal coincubation) with human neutrophils. Format: cell-based, Aspergillus fumigatus. The conditions noted are these: IL-6/23-stimulated, inhibitor 20 μM, FIG. 6F.
From the text: as §6, §7, §4

For `CC(=O)Nc1nc(C)c(S(=O)(=O)Nc2ccc(C(O)(C(F)(F)F)C(F)(F)F)cc2)s1` [SR1001], the “IL-17 production in stimulated neutrophils” value in test [1] was “ablated”. In addition, the IL-17RC expression entry in test [2] and in test [3] was “did not inhibit” each time. In addition, the ROS production result in test [4] (plus rIL-17A) is “ROS production was increased”; in test [4] (without rIL-17A), “not increased above the level produced by naïve neutrophils”; in test [5] (plus rhIL-17A) it was “increased ROS”; in test [5] (without rhIL-17A), “no increase in ROS”. For the same molecule, the hyphal killing activity result in test [6] (plus rIL-17A) is “enhanced hyphal killing activity was detected”. Also, the “hyphal growth (fluorescent fungal mass)” value in test [6] (without rIL-17A) is “did not further impede hyphal growth”. Further, the results for the fluorescent fungal mass result in test [7] (plus rhIL-17A) and in test [7] (without rhIL-17A) were “decreased fungal mass” and “no increase in ROS (FIG. 6E) or decrease in fluorescent fungal mass”, respectively.
Consider `N#CC[C@H](C1CCCC1)n1cc(-c2ncnc3[nH]ccc23)cn1` [INC424, Ruxolitinib], for which the IL-17RC expression entry in test [2] and in test [3] was “did not inhibit” in each case.
